Results: patent US20110076293A1, “TRIPTOLIDE DERIVATIVES FOR MODULATION OF APOPTOSIS AND IMMUNOSUPPRESSION” (priority 2002, published 2011)
Read-outs that look alike come from different tables or passages of the source.

Legend:
[1] = tested on: Jurkat human T lymphocyte cell line; test: Apoptosis assay (Annexin V) of compounds incubated with human serum; settings: for EC50: Homo sapiens, Jurkat
Description: Compounds of formula I, as shown in Table 1 above and in the Examples, were assayed for their capacity to induce apoptosis in cells from the Jurkat human T lymphocyte cell line, after incubation with pooled human serum for varying periods of time at 37° C. (see Example 19). An ester prodrug, triptolide-14-succinate, designated PG490-88, was included for comparison. The extent of conversion to triptolide after such incubation was also independently determined by HPLC analysis.
The ED50 values (column 3) are calculated directly from the data in each experiment, and the % conversion values (column 4) are calculated as percent of the ED50 value produced by triptolide, designated PG490, incubated in the same plasma (i.e. in the same experiment).
A. Incubation of compounds with human serum. Pooled human serum was stored in aliquots at −80° C. Test compounds were added at 20 mM to thawed human serum in 1.5 ml microfuge tubes and incubated at 37° C. in a water bath for varying periods of time. The test samples were placed on ice until dilution for the bioassay. Controls consisted of the compounds incubated in complete tissue culture medium (RPMI 1640 medium plus 5% heat-inactivated fetal calf serum, 1% HEPES, 1% pen/strep, 1% glutamine) rather than human serum.
B. Apoptosis assay of compounds incubated with human serum. Test samples were diluted to 1 mM in complete tissue culture medium. Aliquots were placed in microculture plates and serial dilutions were prepared so that the final concentration would encompass the range of 1 to 10,000 nM with half-log increments. Cells from an exponentially expanding culture of the Jurkat human T lymphocyte cell line (#TIB-152 obtained from American Type Culture Collection, Manassas, Va.) were harvested, washed once by centrifugation and dilution in complete tissue culture medium, and diluted to a concentration of 1×10^6 cells/ml. A volume of 100 μl of Jurkat cells (1×10^5 cells) was added to wells containing 100 μl of the diluted compounds, and the plates were incubated at 37° C. in a 5% CO2 incubator. After 24 hours, the plates were centrifuged to pellet the cells, and the cells were washed twice with 2% heat-inactivated fetal calf serum in PBS. To each well, 500 ul of binding buffer was added according to the Annexin V assay procedure (BioVision, Inc., Mountain View, Calif.). Next, 5 μl of the fluorescein isothiocyanate (FITC) conjugate of Annexin V (BioVision, Inc.) was added to each well, followed by 5 minutes of incubation in the dark. In some assays, propidium iodide (BioVision, Inc.) was added at this stage to check for necrotic cells. The contents of the wells were individually transferred into test tubes, and apoptosis was analyzed using a FACSCalibur flow cytometer (BD Immunocytometry Systems, San Jose, Calif.). Cells positive for Annexin V binding were considered to be apoptotic, and the data were calculated as percent apoptotic cells.
(§1) C. Comparison of bioactivities after incubation of compounds in human serum. The data were plotted as the concentration of compound incubated in serum versus percent apoptotic cells. The concentration of compound inducing 50% apoptosis (ED50) was calculated from these dose response curves. […] This percentage conversion was used to compare the bioactivity of various compounds after incubation in human serum.

[2] = tested on: IL-2 production in Jurkat human T lymphocyte cells; test: IL-2 production assay for activity of compounds incubated with human serum; settings: for IC50: Homo sapiens, Jurkat, 48 h, IL-2 production in Jurkat cells after incubation with pooled human serum for 48 hours at 37° C.; for Conversion (%): percent of the IC50 value produced by triptolide (PG490) in the same experiment, human serum 48 hours; for bioactivity in IL-2 inhibition assays (in words): FIGS. 4-5
Description: Several compounds of formula I were analyzed for their capacity to inhibit IL-2 production in Jurkat human T lymphocyte cells, after incubation with pooled human serum for 48 hours at 37° C. (see Example 20). An ester prodrug, triptolide-14-succinate, designated PG490-88, was included for comparison.
The IC50 values (column 1) are calculated directly from the data in each experiment. The % conversion values (column 2) are calculated as the percent of the IC50 value produced by triptolide, designated PG490, incubated in the same plasma (i.e. in the same experiment).
A. IL-2 production assay for activity of compounds incubated with human serum. Test samples were diluted to 1 mM in complete tissue culture medium. […] Cells from an exponentially expanding culture of the Jurkat human T lymphocyte cell line (#TIB-152 obtained from American Type Culture Collection, Manassas, Va.) were harvested, washed once by centrifugation and dilution in complete tissue culture medium, and diluted to a concentration of 2×10^6 cells/ml. A volume of 50 μl of Jurkat cells (1×10^5 cells) was added to wells containing 100 μl of the diluted compounds, 50 μl of PMA (10 ng/ml) was added to each well, and the plates were incubated at 37° C. in a 5% CO2 incubator. After 24 hours, the plates were centrifuged to pellet the cells, 150 μl of supernatant was removed from each well, and the samples were stored at −20° C. The stored supernatants were analyzed for human IL-2 concentration using the Luminex 100 (Luminex Corporation, Austin, Tex.), Luminex microspheres coupled with anti-IL-2 capture antibody, and fluorochrome-coupled anti-IL-2 detection antibody. The data were expressed as ng/ml of IL-2.
as §1, with “B.” for “C.”, “IL-2 concentration.” for “percent apoptotic cells.”, “inducing a” for “inducing”, “decrease in the IL-2 concentration (IC50)” for “apoptosis (ED50)”

[3] = 48 h, read-out: ED50 (nM) in apoptosis assay after incubation with serum, incubation time in human serum 48 hours, 37° C.
[4] = incubation time in human serum 48 hours

CC(C)[C@]12O[C@H]1[C@@H]1O[C@]13[C@]1(O[C@H]1C[C@H]1C4=C(CC[C@@]13C)C(=O)OC4)[C@@H]2OC(=O)OC(C)(C)C [PG695, Triptolide 14-tert-Butyl Carbonate]
EC50 [1, 3]: 59 nM | Conversion, as relative ED50 compared to triptolide (%) [1, 4]: 100% | IC50 [2]: 100 nM | Conversion (%) [2]: 2%

CC(C)[C@]12O[C@H]1[C@@H]1O[C@]13[C@]1(O[C@H]1C[C@H]1C4=C(CC[C@@]13C)C(=O)OC4)[C@@H]2OC(=O)NCCN(C)C [PG688, Triptolide 14-Dimethylaminoethyl Carbamate]
conversion in human serum (in words) [1]: less readily converted | % apoptotic cells at given concentration (nM) ([1]; Table 5, human serum (48 hrs), 1 nM): 9.2% | % apoptotic cells at given concentration (nM) ([1]; Table 5, human serum (48 hrs), 3 nM): 9.8% | % apoptotic cells at given concentration (nM) ([1]; Table 5, human serum (48 hrs), 10 nM): 9.4% | % apoptotic cells at given concentration (nM) ([1]; Table 5, human serum (48 hrs), 30 nM): 9.5% | % apoptotic cells at given concentration (nM) ([1]; Table 5, human serum (48 hrs), 100 nM): 9.4% | % apoptotic cells at given concentration (nM) ([1]; Table 5, human serum (48 hrs), 300 nM): 8.7% | % apoptotic cells at given concentration (nM) ([1]; Table 5, human serum (48 hrs), 1000 nM): 8.6% | % apoptotic cells at given concentration (nM) ([1]; Table 5, human serum (48 hrs), 3000 nM): 8.2% | % apoptotic cells at given concentration (nM) ([1]; Table 5, medium, 1 nM): 13.0% | % apoptotic cells at given concentration (nM) ([1]; Table 5, medium, 3 nM): 14.0% | % apoptotic cells at given concentration (nM) ([1]; Table 5, medium, 10 nM): 12.1% | % apoptotic cells at given concentration (nM) ([1]; Table 5, medium, 30 nM): 10.9% | % apoptotic cells at given concentration (nM) ([1]; Table 5, medium, 100 nM): 11.2% | % apoptotic cells at given concentration (nM) ([1]; Table 5, medium, 300 nM): 11.3% | % apoptotic cells at given concentration (nM) ([1]; Table 5, medium, 1000 nM): 12.1% | % apoptotic cells at given concentration (nM) ([1]; Table 5, medium, 3000 nM): 10.9% | bioactivity in IL-2 inhibition assays (in words) [2]: some level of bioactivity | IL-2 pg/mL at given concentration (nM) ([2]; Table 7, Jurkat cells (48 hrs), 0.001 nM): 883.9 pg/mL | IL-2 pg/mL at given concentration (nM) ([2]; Table 7, Jurkat cells (48 hrs), 0.01 nM): 754.1 pg/mL | IL-2 pg/mL at given concentration (nM) ([2]; Table 7, Jurkat cells (48 hrs), 0.1 nM): 810.4 pg/mL | IL-2 pg/mL at given concentration (nM) ([2]; Table 7, Jurkat cells (48 hrs), 1 nM): 900.4 pg/mL | IL-2 pg/mL at given concentration (nM) ([2]; Table 7, Jurkat cells (48 hrs), 10 nM): 796.3 pg/mL | IL-2 pg/mL at given concentration (nM) ([2]; Table 7, Jurkat cells (48 hrs), 100 nM): 873.3 pg/mL | IL-2 pg/mL at given concentration (nM) ([2]; Table 7, Jurkat cells (48 hrs), 1000 nM): 759.9 pg/mL | IL-2 pg/mL at given concentration (nM) ([2]; Table 7, Jurkat cells (48 hrs), 10000 nM): 459.8 pg/mL

CC(C)[C@]12O[C@H]1[C@@H]1O[C@]13[C@]1(O[C@H]1C[C@H]1C4=C(CC[C@@]13C)C(=O)OC4)[C@@H]2OC(=O)O[C@H](C)C(=O)OC(C)(C)C [PG681, Triptolide 14-(R)-α-Methyl-tert-butoxycarbonylmethyl Carbonate]
EC50 ([1]; 1 h, read-out: ED50 (nM) in apoptosis assay after incubation with serum, incubation time in human serum 1 hour, 37° C.): 684 nM | EC50 [1, 3]: 139 nM | Conversion, as relative ED50 compared to triptolide (%) ([1]; incubation time in human serum 1 hour): 7% | Conversion, as relative ED50 compared to triptolide (%) [1, 4]: 40% | IC50 [2]: 3 nM | Conversion (%) [2]: 55%

CC(C)[C@]12O[C@H]1[C@@H]1O[C@]13[C@]1(O[C@H]1C[C@H]1C4=C(CC[C@@]13C)C(=O)OC4)[C@@H]2OC(=O)CCC(N)C(=O)O (stereo partly drawn) [PG661, 14-isoglutamyl ester, reference compound]
% apoptotic cells at given concentration (nM) ([1]; Table 3, human serum, 0 hr, 10000 nM): 7.9% | % apoptotic cells at given concentration (nM) ([1]; Table 3, human serum, 48 hr, 1 nM): 11.3% | % apoptotic cells at given concentration (nM) ([1]; Table 3, human serum, 48 hr, 3 nM): 10.4% | % apoptotic cells at given concentration (nM) ([1]; Table 3, human serum, 48 hr, 10 nM): 10.3% | % apoptotic cells at given concentration (nM) ([1]; Table 3, human serum, 48 hr, 30 nM): 10.5% | % apoptotic cells at given concentration (nM) ([1]; Table 3, human serum, 48 hr, 100 nM): 10.3% | % apoptotic cells at given concentration (nM) ([1]; Table 3, human serum, 48 hr, 300 nM): 10.5% | % apoptotic cells at given concentration (nM) ([1]; Table 3, human serum, 48 hr, 1000 nM): 10.2% | % apoptotic cells at given concentration (nM) ([1]; Table 3, human serum, 48 hr, 3000 nM): 9.7% | % apoptotic cells at given concentration (nM) ([1]; Table 3, human serum, 48 hr, 10000 nM): 9.4% | % apoptotic cells at given concentration (nM) ([1]; Table 3, medium only, 10000 nM): 13.6% | % apoptotic cells at given concentration (nM) ([1]; Table 4, medium, 10000 nM): 7.3% | % apoptotic cells at given concentration (nM) ([1]; Table 4, serum, 0 hr, 10000 nM): 5.2% | % apoptotic cells at given concentration (nM) ([1]; Table 4, serum, 48 hr, 0.03 nM): 38.8% | % apoptotic cells at given concentration (nM) ([1]; Table 4, serum, 48 hr, 0.1 nM): 38.2% | % apoptotic cells at given concentration (nM) ([1]; Table 4, serum, 48 hr, 0.3 nM): 39.0% | % apoptotic cells at given concentration (nM) ([1]; Table 4, serum, 48 hr, 1 nM): 39.2% | % apoptotic cells at given concentration (nM) ([1]; Table 4, serum, 48 hr, 3 nM): 39.1% | % apoptotic cells at given concentration (nM) ([1]; Table 4, serum, 48 hr, 10 nM): 39.2% | % apoptotic cells at given concentration (nM) ([1]; Table 4, serum, 48 hr, 30 nM): 40.3% | % apoptotic cells at given concentration (nM) ([1]; Table 4, serum, 48 hr, 100 nM): 38.6% | % apoptotic cells at given concentration (nM) ([1]; Table 4, serum, 48 hr, 300 nM): 36.3% | % apoptotic cells at given concentration (nM) ([1]; Table 4, serum, 48 hr, 1000 nM): 28.7% | % apoptotic cells at given concentration (nM) ([1]; Table 4, serum, 48 hr, 3000 nM): 28.2% | % apoptotic cells at given concentration (nM) ([1]; Table 4, serum, 48 hr, 10000 nM): 5.2% | apoptotic activity (in words) ([1]; after 48 hr. incubation in human serum): essentially no activity | bioactivity in IL-2 inhibition assays (in words) [2]: little or no activity | IL-2 pg/mL at given concentration (nM) ([2]; Table 8, Jurkat cells, 0.0001 nM): 82.0 pg/mL | IL-2 pg/mL at given concentration (nM) ([2]; Table 8, Jurkat cells, 0.001 nM): 102.1 pg/mL | IL-2 pg/mL at given concentration (nM) ([2]; Table 8, Jurkat cells, 0.01 nM): 123.6 pg/mL | IL-2 pg/mL at given concentration (nM) ([2]; Table 8, Jurkat cells, 0.1 nM): 120.7 pg/mL | IL-2 pg/mL at given concentration (nM) ([2]; Table 8, Jurkat cells, 1 nM): 98.2 pg/mL | IL-2 pg/mL at given concentration (nM) ([2]; Table 8, Jurkat cells, 10 nM): 110.3 pg/mL | IL-2 pg/mL at given concentration (nM) ([2]; Table 8, Jurkat cells, 100 nM): 103.6 pg/mL | IL-2 pg/mL at given concentration (nM) ([2]; Table 8, Jurkat cells, 1000 nM): 74.4 pg/mL | IL-2 pg/mL at given concentration (nM) ([2]; Table 8, Jurkat cells, 10000 nM): 68.7 pg/mL
